Here are results for nine molecules from patent US7034059B2, “Methods of using norfluoxetine” (Sepracor Inc., priority 2001, dated 2006).

In data set [1] the test system is human lung fibroblast cell line WI-38. Put plainly: Inhibition of IL-1β-induced PGE2 production, whole cell-based assay. As to conditions: for PGE2 (pg/ml) / PGE2: IL-1β 100 pg/mL, 24 hours; for IC50: Homo sapiens; for anti-inflammatory activity in vitro, R- versus S-enantiomer: conclusion from Tables 1-4. As to the method:
Compounds were tested for anti-inflammatory activity using a whole cell-based assay, wherein the human lung fibroblast cell line WI-38 was cultured in Eagle's basal media supplemented with 10% fetal calf serum (FCS) in 48-well tissue culture dishes in a humidified 7% CO2 atmosphere at 37° C. When the cells reached confluence, they were fed with fresh media for 24 hours. The media was removed and fresh media, containing either 5% or 10% FCS, was added to the cells. […] Interleukin-1β (Calbiochem) in 0.1% bovine serum albumin in phosphate buffered saline was added in a 1 μL aliquot to give a final concentration of 100 pg/mL. The cells were cultured for 24 hours and the amount of PGE2 secreted into the cell culture media was assayed using a PGE2 enzyme immunoassay kit (Cayman Chemicals, Ann Arbor, Mich.). Inhibition of PGE2 production is indicative of anti-inflammatory activity.
The IC50 values of enantiomerically pure R- and S-norfluoxetine were determined by incubation of the WI-38 cells with varying concentrations of the compounds in question ([…]). The PGE2 produced for each concentration was plotted against the concentration of compound using the 6 safit 4.0 program (Erithacus software) and the IC50 determined by fitting the data to the 4-parameter equation.

Data set [2] can be described thus: Serum levels of norfluoxetine after fluoxetine treatment (Prozac package insert). It counts as in vivo. As to conditions: human, oral, humans, after treatment for 30 days with 40 mg per day of fluoxetine, approximate conversion of ng/ml. An excerpt:
It is noteworthy that these values, especially that of R-norfluoxetine, fall within values that may be obtained in serum in humans.

In the next data set the test system is serotonin reuptake. As to conditions: Physicians' Desk Reference; cited from earlier work.
The mark [3] stands for this setting: Table 1, 10% fetal calf serum-containing media, compound 0.5 uM.
Where [4] appears, read: Table 1, 10% fetal calf serum-containing media, compound 10 uM.
[5] abbreviates: Table 2, 5% fetal calf serum-containing media, compound 0.5 uM.
The mark [6] stands for this setting: Table 2, 5% fetal calf serum-containing media, compound 10 uM.
Where [7] appears, read: Table 3, 10% fetal calf serum-containing media, compound 0.5 uM.
Where [8] appears, read: Table 3, 10% fetal calf serum-containing media, compound 10 uM.
Setting [9] is: Table 4, 5% fetal calf serum-containing media, compound 0.5 uM.
Setting [10] is: Table 4, 5% fetal calf serum-containing media, compound 10 uM.

Like-named read-outs stand apart in the source and are kept apart here.

As for `Cc1ccc(-c2cc(C(F)(F)F)nn2-c2ccc(S(N)(=O)=O)cc2)cc1` [celebrex], the “PGE2 (pg/ml)” value in data set [1] (setting [3]), in data set [1] (setting [4]), in data set [1] (setting [6]), in data set [1] (setting [7]), in data set [1] (setting [8]) and in data set [1] (setting [9]) was “low” in each case. In addition, the “PGE2 (pg/ml)” value in data set [1] (setting [10]) is listed as “low”. For the same molecule, the “PGE2” value in data set [1] (setting [5]) was 16 pg/mL.

As to `CNCCC=C1c2ccccc2CCc2ccccc21` [nortriptylene], the “PGE2” value in data set [1] (setting [7]) turned out to be 2040 pg/mL; in data set [1] (setting [8]), 648 pg/mL; in data set [1] (setting [9]), 880 pg/mL; in data set [1] (setting [10]) it was 331 pg/mL.

Consider `CNCCC(Oc1ccc(C(F)(F)F)cc1)c1ccccc1` (racemic) [rac-fluoxetine, (±)-N-methyl-γ-[4-(trifluoromethyl)-phenoxy]benzenepropanamine], for which the “PGE2 (pg/ml)” value in data set [1] (setting [3]), in data set [1] (setting [4]), in data set [1] (setting [5]), in data set [1] (setting [6]) and in data set [1] (setting [10]) was “low” each time. In addition, the “PGE2” value in data set [1] (setting [7]) was found to be 545 pg/mL; in data set [1] (setting [8]), 156 pg/mL; in data set [1] (setting [9]) it was 22 pg/mL.

As for `NCCC(Oc1ccc(C(F)(F)F)cc1)c1ccccc1` (racemic) [rac-norfluoxetine, (±)-γ-[4-(trifluoromethyl)-phenoxy]benzenepropanamine], in data set [1] (setting [3]), the “PGE2” value worked out at 189 pg/mL. The “PGE2 (pg/ml)” value in data set [1] (setting [4]), in data set [1] (setting [5]) and in data set [1] (setting [6]) was “low” throughout. In data set [2], this molecule showed a concentration at 30 days of 230 to 830 nM.

For the molecule `C[C@@H](C(=O)O)c1cccc(C(=O)c2ccccc2)c1` [(R)-ketoprofen], the “PGE2 (pg/ml)” value in data set [1] (setting [3]), in data set [1] (setting [4]), in data set [1] (setting [5]) and in data set [1] (setting [6]) was “low” throughout.

A word on the IC50: it is the concentration that gives 50% inhibition. As to `NCC[C@@H](Oc1ccc(C(F)(F)F)cc1)c1ccccc1` [(R)-norfluoxetine, R-norfluoxetine], in data set [1] (WI-38, read-out: IC50 (PGE2 produced)), the IC50 is ~790 nM. Further, the “PGE2” value in data set [1] (setting [3]) came out at 714 pg/mL; in data set [1] (setting [4]), 159 pg/mL; in data set [1] (setting [5]), 255 pg/mL; in data set [1] (setting [6]), 31 pg/mL. The “anti-inflammatory activity in vitro, R- versus S-enantiomer” value in data set [1] is listed as “substantially equipotent”. The “potency in inhibiting serotonin uptake” value in the data set with serotonin reuptake was “significantly less potent than racemic fluoxetine”.

`CC(C(=O)O)c1cccc(C(=O)c2ccccc2)c1` (racemic) [rac-ketoprofen, ketoprofen]: the “PGE2 (pg/ml)” value in data set [1] (setting [4]) and in data set [1] (setting [6]) was “low” in each case. Besides, the “PGE2” value in data set [1] (setting [5]) amounted to 119 pg/mL.

As for `NCC[C@H](Oc1ccc(C(F)(F)F)cc1)c1ccccc1` [(S)-norfluoxetine, S-norfluoxetine], in data set [1] (WI-38 cells, 0.009-20 concentrations, 4-parameter fit, read-out: IC50 (PGE2 produced)), the half-maximal inhibitory concentration (IC50) was ~1400 nM. For the same molecule, the “PGE2” value was 809 pg/mL in data set [1] (setting [3]), 486 pg/mL in data set [1] (setting [4]), 483 pg/mL in data set [1] (setting [5]) and 112 pg/mL in data set [1] (setting [6]). Also, the “anti-inflammatory activity in vitro, R- versus S-enantiomer” value in data set [1] is listed as “substantially equipotent”. In the data set on serotonin reuptake, the “potency in inhibiting serotonin uptake” value was “potent and selective serotonin uptake inhibition”.

`C[C@H](C(=O)O)c1cccc(C(=O)c2ccccc2)c1` [(S)-ketoprofen]: the “PGE2 (pg/ml)” value in data set [1] (setting [3]), in data set [1] (setting [4]) and in data set [1] (setting [6]) was “low” each time. The “PGE2” value in data set [1] (setting [5]) is 145 pg/mL.
